Data published in PubChem BioAssay (NCI).
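Exposure lasted 48 hours, with cells grown in 96-well plates and compounds tested at five concentrations. Abbreviation: GI50, concentration required for 50% inhibition of growth. Definition used: TGI = concentration required for complete inhibition of growth.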

Columns and labels:
Assay in all cases: NCI tumour cell line growth inhibition, 48 h
KM12 colon = tested on: KM12 colon
PC-3 prostate = tested on: PC-3 prostate
HOP-62 NSCLC = tested on: HOP-62 NSCLC
HOP-92 NSCLC = tested on: HOP-92 NSCLC
U251 CNS = tested on: U251 CNS
K-562 leukemia = tested on: K-562 leukemia
OVCAR-3 ovarian = tested on: OVCAR-3 ovarian
MOLT-4 leukemia = tested on: MOLT-4 leukemia
SK-MEL-28 melanoma = tested on: SK-MEL-28 melanoma
NCI-H460 lung = tested on: NCI-H460 lung

Compound | TGI (KM12 colon) [µM] | TGI (PC-3 prostate) [µM] | TGI (HOP-62 NSCLC) [µM] | TGI (HOP-92 NSCLC) [µM] | TGI (U251 CNS) [µM] | TGI (K-562 leukemia) [µM] | TGI (OVCAR-3 ovarian) [µM] | TGI (MOLT-4 leukemia) [µM] | TGI (SK-MEL-28 melanoma) [µM] | TGI (NCI-H460 lung) [µM] | GI50 (KM12 colon) [µM] | GI50 (SK-MEL-28 melanoma) [µM] | GI50 (PC-3 prostate) [µM] | GI50 (HOP-62 NSCLC) [µM] | GI50 (HOP-92 NSCLC) [µM] | GI50 (K-562 leukemia) [µM] | GI50 (OVCAR-3 ovarian) [µM] | GI50 (MOLT-4 leukemia) [µM] | GI50 (U251 CNS) [µM] | GI50 (NCI-H460 lung) [µM]
Nc1ccc2c(c1)C1Oc3ccccc3CC1CO2 (stereo unspecified) | > 100 | > 100 | > 100 | > 100 | > 100 | > 100 | > 100 | > 100 |  |  |  |  |  |  |  |  |  |  |  | 
C=CCOc1ccc(C2c3c([nH][nH]c3=O)CC(O)(OCC)C2C(=O)OCC)cc1OC (stereo unspecified) | > 100 | > 100 | > 100 | > 100 | > 100 |  | > 100 | > 100 | > 100 | > 100 |  |  |  |  |  |  |  |  |  | 
CSC1=Nc2ccccc2-c2nc(-c3ccccc3)cc(-c3ccccc3)c2C1 | > 100 | > 100 | > 100 |  | 44.4 | > 100 |  | > 100 | > 100 | > 100 |  |  |  |  |  |  |  |  |  | 
CCOC(=O)c1ccc(-c2cc(C)[nH]n2)[nH]1 | > 100 | > 100 | > 100 | > 100 | > 100 |  | > 100 |  | > 100 | > 100 |  |  |  |  |  |  |  |  |  | 
CC(=O)Nc1ccc(S(=O)(=O)Nc2nnc(S(N)(=O)=O)s2)cc1 | > 100 |  |  | > 100 | > 100 |  |  | > 100 |  | > 100 |  |  |  |  |  |  |  |  |  | 
CO/C(=N\N=C\c1ccc(Cl)cc1)c1ccncc1 | > 100 |  | > 100 | > 100 | > 100 | > 100 | > 100 | > 100 | > 100 | > 100 |  |  |  |  |  |  |  |  |  | 
CC1(CCCC2(C)CCNC2=O)OCCO1 (stereo unspecified) | > 10 | > 10 | > 10 |  | > 10 | > 10 | > 10 | > 10 | > 10 | > 10 |  |  |  |  |  |  |  |  |  | 
O=C1NN=C(c2ccc(Cl)cc2)CC1C1C(=O)N(c2ccccc2)N=C1c1ccccc1 (stereo unspecified) | > 100 | 72.3 | > 100 |  | 82.9 | > 100 | 72.9 | > 100 | > 100 | 80.4 |  |  |  |  |  |  |  |  |  | 
C(=N\Nc1ncc(-c2cc3cc4c(cc3o2)OCO4)s1)/c1c[nH]c2ccccc12 | 2.04 | 6.2 | 7.95 | 5.34 |  | > 100 | 1.89 | 9.49 | 12.2 |  | 0.449 | 3.17 | 0.519 | 1.6 | 1.49 | 0.382 | 0.536 | 0.385 |  | 
Cc1ccccc1N=C(N)NC#N |  | > 100 | > 100 | > 100 | > 100 | > 100 |  | > 100 | > 100 | > 100 |  |  |  |  |  |  |  |  |  | 
CC(=O)NC1(C)CCC(C(C)(C)NC(C)=O)CC1 (stereo unspecified) | > 100 | > 100 | > 100 |  | > 100 | > 100 | > 100 | > 100 | > 100 | > 100 |  |  |  |  |  |  |  |  |  | 
CC1(C)O[C@H](C(=O)O)[C@@H](C(=O)O)O1 | > 100 | > 100 | > 100 | > 100 | > 100 | > 100 |  | > 100 | > 100 | > 100 |  |  |  |  |  |  |  |  |  | 
CC(=O)Nc1ccc2c(C(=O)O)c(C)c(=O)[nH]c2n1 | > 100 | > 100 |  | 56 | > 100 | > 100 |  | > 100 |  | > 100 |  |  |  |  |  |  |  |  |  | 
CCSc1ncnc2c(C3OC(CO)C(O)C3O)nsc12 (stereo unspecified) |  | > 100 | > 100 | > 100 | > 100 | > 100 | > 100 | > 100 | > 100 |  |  |  |  |  |  |  |  |  |  | 
CCOC(=O)C1=CN=C2C(=O)N(c3ccccc3)N(C)C2(C)C1=N (stereo unspecified) | > 100 | > 100 |  | > 100 | > 100 | > 100 | > 100 |  | > 100 | > 100 |  |  |  |  |  |  |  |  |  | 
CCCSc1cc(Cl)c(C)cc1S(=O)(=O)n1ccnc1OCCCN(C)C | > 100 | > 100 | > 100 |  | > 100 | > 100 | > 100 | > 100 | > 100 | > 100 |  |  |  |  |  |  |  |  |  | 
COC(=O)C1=C(C)N2CCCOC2(C)C(C(=O)OC)C1c1cccc(Cl)c1 (stereo unspecified) | 43.9 |  | 48.7 | 73.9 |  | > 100 | 70.8 | 45.1 | > 100 | 61.3 |  |  |  |  |  |  |  |  |  | 
O=C1C=Cc2c(Cl)sc(Cl)c21 |  | 4.83 | 4.2 |  | > 100 | 3.21 |  |  | 3.97 | 45.2 |  |  |  |  |  |  |  |  |  | 
Nn1c(Cc2ccc(Cl)cc2)n[nH]c1=O | > 100 |  | > 100 | > 100 | > 100 | > 100 | > 100 | > 100 | > 100 | > 100 |  |  |  |  |  |  |  |  |  | 
CC(C)(C)C#C[P+](c1ccccc1)(c1ccccc1)c1ccccc1 | 0.687 |  | 1.79 | 0.689 | 1.32 | 4.83 | 1.32 | 1.57 | 1.46 | 0.475 |  |  |  |  |  |  |  |  |  | 
Cc1nc2c(cc1C(=O)NN)c(=O)n(C)c(=O)n2C | > 100 | > 100 | > 100 |  | > 100 | > 100 | > 100 | > 100 | > 100 | > 100 |  |  |  |  |  |  |  |  |  | 
COc1cc2c(cc1OC)C1CN3C(=O)CCC3C(O)C1c1cc(OC)c(OC)cc1-2 (stereo unspecified) | > 100 |  | > 100 | > 100 | > 100 | > 100 |  | > 100 | > 100 | > 100 |  |  |  |  |  |  |  |  |  | 
O=C(O)CC(NC(=O)Nc1ccc([N+](=O)[O-])cc1)C(=O)Nc1ccc([N+](=O)[O-])cc1 (stereo unspecified) | > 100 | > 100 | > 100 |  | > 100 | > 100 | > 100 | > 100 | > 100 | > 100 |  |  |  |  |  |  |  |  |  | 
COC12C=C/C(=C(/C(=O)OCc3ccncn3)C(=O)CCCCCCCCC3(OC)C=C/C(=C(/C(=O)OCc4ccncn4)C(=O)CCCCCCCC1)O3)O2 | 0.499 | 1.09 | 0.6 |  | 1.54 |  | 0.903 |  | 2.51 | 1.02 | 0.227 | 0.317 | 0.305 | 0.225 |  |  | 0.317 |  | 0.335 | 0.319
